From publication PMC9632963, “Preclinical characterization and phase I clinical trial of CT053PTSA targets MET, AXL, and VEGFR2 in patients with advanced solid tumors” (Frontiers in Immunology, 2022)

Tested on: patients with advanced solid tumors
Assay: Phase I trial: safety, tolerability, DLT, MTD (CTCAE v4.0)
Assay type: in vivo
Excerpt: Eligible patients had at least one measurable lesion per RECIST v 1.1, Eastern Cooperative Oncology Group (ECOG) performance status of 0 or 1, and adequate hematological, renal, cardiac and hepatic functions. The primary objectives were to assess safety and tolerability as well as to determine the MTD, DLT, and dose recommended for further study. The secondary objectives were to assess the PK and preliminary efficacy of CT053PTSA.
An initial accelerated titration design was used in the 15 and 30 mg QD cohorts, and the “3+3” schema was used starting in the 60 mg QD cohort. […] The study protocol was approved by an institutional review board at Sun Yat-sen University Cancer Center. Written informed consent was obtained from all the patients before enrollment.
Descriptive statistics of safety are presented per CTCAE v4.0. Subjects who received at least one dose of CT053PTSA were considered eligible to be evaluated and included in safety analyses. […] According to the RECIST 1.1 criteria, imaging examinations were performed at each specified time point in the protocol. The antitumor activity was measured by RECIST1.1.

Cc1c(C(=O)Nc2ccc(Oc3ccnc4cc(OCC(C)(C)O)ccc34)c(F)c2)c(=O)n(-c2ccccc2)n1C [CT053PTSA]
Anaemia, All (15mg (n = 1)): 0 n (%)
Anaemia, ≥ G3 (15mg (n = 1)): 0 n (%)
Blood chloride decreased, All (15mg (n = 1)): 0 n (%)
Blood chloride decreased, ≥ G3 (15mg (n = 1)): 0 n (%)
Blood creatinine increased, All (15mg (n = 1)): 0 n (%)
Blood creatinine increased, ≥ G3 (15mg (n = 1)): 0 n (%)
Blood potassium decreased, All (15mg (n = 1)): 0 n (%)
Blood potassium decreased, ≥ G3 (15mg (n = 1)): 0 n (%)
Blood sodium decreased, All (15mg (n = 1)): 0 n (%)
Blood sodium decreased, ≥ G3 (15mg (n = 1)): 0 n (%)
Blood uric acid increased, All (15mg (n = 1)): 0 n (%)
Blood uric acid increased, ≥ G3 (15mg (n = 1)): 0 n (%)
Decreased appetite, All (15mg (n = 1)): 0 n (%)
Decreased appetite, ≥ G3 (15mg (n = 1)): 0 n (%)
Diarrhea, All (15mg (n = 1)): 0 n (%)
Diarrhea, ≥ G3 (15mg (n = 1)): 0 n (%)
Dizziness, All (15mg (n = 1)): 0 n (%)
Dizziness, ≥ G3 (15mg (n = 1)): 0 n (%)
Dry mouth, All (15mg (n = 1)): 0 n (%)
Dry mouth, ≥ G3 (15mg (n = 1)): 0 n (%)
Electrocardiogram QT prolonged, All (15mg (n = 1)): 0 n (%)
Electrocardiogram QT prolonged, ≥ G3 (15mg (n = 1)): 0 n (%)
Electrolyte imbalance, All (15mg (n = 1)): 0 n (%)
Electrolyte imbalance, ≥ G3 (15mg (n = 1)): 0 n (%)
Hemoglobin decreased, All (15mg (n = 1)): 0 n (%)
Hemoglobin decreased, ≥ G3 (15mg (n = 1)): 0 n (%)
Hypertension, All (15mg (n = 1)): 0 n (%)
Hypertension, ≥ G3 (15mg (n = 1)): 0 n (%)
Hyponatremia, All (15mg (n = 1)): 0 n (%)
Hyponatremia, ≥ G3 (15mg (n = 1)): 0 n (%)
Hypoparathyroidism, All (15mg (n = 1)): 0 n (%)
Hypoparathyroidism, ≥ G3 (15mg (n = 1)): 0 n (%)
Mouth ulceration, All (15mg (n = 1)): 0 n (%)
Mouth ulceration, ≥ G3 (15mg (n = 1)): 0 n (%)
Nausea, All (15mg (n = 1)): 0 n (%)
Nausea, ≥ G3 (15mg (n = 1)): 0 n (%)
Oropharyngeal pain, All (15mg (n = 1)): 0 n (%)
Oropharyngeal pain, ≥ G3 (15mg (n = 1)): 0 n (%)
Pain, All (15mg (n = 1)): 0 n (%)
Pain, ≥ G3 (15mg (n = 1)): 0 n (%)
Palmar-plantar erythrodysaesthesia syndrome, All (15mg (n = 1)): 0 n (%)
Palmar-plantar erythrodysaesthesia syndrome, ≥ G3 (15mg (n = 1)): 0 n (%)
Platelet count decreased, All (15mg (n = 1)): 0 n (%)
Platelet count decreased, ≥ G3 (15mg (n = 1)): 0 n (%)
Proteinuria, All (15mg (n = 1)): 0 n (%)
Proteinuria, ≥ G3 (15mg (n = 1)): 0 n (%)
Pyrexia, All (15mg (n = 1)): 0 n (%)
Pyrexia, ≥ G3 (15mg (n = 1)): 0 n (%)
Sinus bradycardia, All (15mg (n = 1)): 0 n (%)
Sinus bradycardia, ≥ G3 (15mg (n = 1)): 0 n (%)
Stomatitis, All (15mg (n = 1)): 0 n (%)
Stomatitis, ≥ G3 (15mg (n = 1)): 0 n (%)
Vomiting, All (15mg (n = 1)): 0 n (%)
Vomiting, ≥ G3 (15mg (n = 1)): 0 n (%)
leukopenia, All (15mg (n = 1)): 1 (100) n (%)
leukopenia, ≥ G3 (15mg (n = 1)): 0 n (%)
neutropenia, All (15mg (n = 1)): 0 n (%)
neutropenia, ≥ G3 (15mg (n = 1)): 0 n (%)
transaminase elevation, All (15mg (n = 1)): 1 (100) n (%)
transaminase elevation, ≥ G3 (15mg (n = 1)): 0 n (%)
Anaemia, All (30mg (n = 1)): 0 n (%)
Anaemia, ≥ G3 (30mg (n = 1)): 0 n (%)
Blood chloride decreased, All (30mg (n = 1)): 0 n (%)
Blood chloride decreased, ≥ G3 (30mg (n = 1)): 0 n (%)
Blood creatinine increased, All (30mg (n = 1)): 0 n (%)
Blood creatinine increased, ≥ G3 (30mg (n = 1)): 0 n (%)
Blood potassium decreased, All (30mg (n = 1)): 0 n (%)
Blood potassium decreased, ≥ G3 (30mg (n = 1)): 0 n (%)
Blood sodium decreased, All (30mg (n = 1)): 0 n (%)
Blood sodium decreased, ≥ G3 (30mg (n = 1)): 0 n (%)
Blood uric acid increased, All (30mg (n = 1)): 0 n (%)
Blood uric acid increased, ≥ G3 (30mg (n = 1)): 0 n (%)
Decreased appetite, All (30mg (n = 1)): 1 (100) n (%)
Decreased appetite, ≥ G3 (30mg (n = 1)): 0 n (%)
Diarrhea, All (30mg (n = 1)): 0 n (%)
Diarrhea, ≥ G3 (30mg (n = 1)): 0 n (%)
Dizziness, All (30mg (n = 1)): 0 n (%)
Dizziness, ≥ G3 (30mg (n = 1)): 0 n (%)
Dry mouth, All (30mg (n = 1)): 0 n (%)
Dry mouth, ≥ G3 (30mg (n = 1)): 0 n (%)
Electrocardiogram QT prolonged, All (30mg (n = 1)): 0 n (%)
Electrocardiogram QT prolonged, ≥ G3 (30mg (n = 1)): 0 n (%)
Electrolyte imbalance, All (30mg (n = 1)): 0 n (%)
Electrolyte imbalance, ≥ G3 (30mg (n = 1)): 0 n (%)
Hemoglobin decreased, All (30mg (n = 1)): 0 n (%)
Hemoglobin decreased, ≥ G3 (30mg (n = 1)): 0 n (%)
Hypertension, All (30mg (n = 1)): 0 n (%)
Hypertension, ≥ G3 (30mg (n = 1)): 0 n (%)
Hyponatremia, All (30mg (n = 1)): 1 (100) n (%)
Hyponatremia, ≥ G3 (30mg (n = 1)): 0 n (%)
Hypoparathyroidism, All (30mg (n = 1)): 0 n (%)
Hypoparathyroidism, ≥ G3 (30mg (n = 1)): 0 n (%)
Mouth ulceration, All (30mg (n = 1)): 0 n (%)
Mouth ulceration, ≥ G3 (30mg (n = 1)): 0 n (%)
